pIC50: −log10 of the molar value. Where a name gives a salt, the structure may show the parent alone. Read-outs that look alike come from different tables or passages of the source.
Test system: HIV-1 strain 92HT599
Experiment: Antiviral activity against HIV-1 strain 92HT599 in MT2 cells (p24 estimation)
Assay type: cell-based
Conditions: HIV-1 92HT599, ~96 hours
Experimental: Example 77: Evaluation of Compounds Antiviral Activity Against HIV-1 Strain 92HT599 in MT2 Cells
MT2 cells were infected with HIV-1 strain 92HT599 (10 TCID 50/30000 cells). The infected cells were plated at the concentration of 30,000 cells per well in 96 well plate. Test compound was added to the micro plate in defined format with the final concentration of DMSO (vehicle) is not more than 1%. Incubation was carried out in CO2 incubator for ˜96 hours for viral infection. At the end of incubation period an aliquot from each well was taken for p24 estimation. The quantitation of p24 is an index for antiviral activity of the compound. Percent inhibition was calculated with reference to control values (vehicle controls). p24 estimation was carried out using Advance biosciences kit as per the procedure detailed by supplier.

[1] = Human immunodeficiency virus 1, 0% serum binding assay, read-out: IC50 0% serum
[2] = Human immunodeficiency virus 1, 40% serum binding assay, read-out: IC50 40% serum

SMILES	pIC50 [1]	pIC50 [2]
CC(C)C1=C2[C@H]3CC[C@@H]4[C@@]5(C)CC[C@H](OC(=O)[C@H]6C[C@@H](C(=O)O)C6(C)C)C(C)(C)[C@@H]5CC[C@@]4(C)[C@]3(C)CC[C@@]2(NC(=O)C(C)(C)NC(=O)C(C)(C)N)CC1=O [Example 11, (1R,3S)-3-((((3aR,5aR,5bR,7aR,9S,11aR,11bR,13aS)-3a-(2-(2-amino-2-methylpropanamido)-2-methylpropanamido)-1-isopropyl-5a,5b,8,8,11a-pentamethyl-2-oxo-3,3a,4,5,5a,5b,6,7,7a,8,9,10,11,11a,11b,12,13,13a-octadecahydro-2H-cyclopenta[a]chrysen-9-yl)oxy)carbonyl)-2,2-dimethylcyclobutane-1-carboxylic acid hydrochloride]	> 8.52	6.70 to 7.30
CC(C)C1=C2[C@H]3CC[C@@H]4[C@@]5(C)CC[C@H](OC(=O)[C@H]6C[C@@H](C(=O)O)C6(C)C)C(C)(C)[C@@H]5CC[C@@]4(C)[C@]3(C)CC[C@@]2(NC(=O)C(C)(C)NC(=O)CN(C)C)CC1=O [Example 59, (1R,3S)-3-((((3aR,5aR,5bR,7aR,9S,11aR,11bR,13aS)-3a-(2-(2-(dimethylamino)acetamido)-2-methylpropanamido)-1-isopropyl-5a,5b,8,8,11a-pentamethyl-2-oxo-3,3a,4,5,5a,5b,6,7,7a,8,9,10,11,11a,11b,12,13,13a-octadecahydro-2H-cyclopenta[a]chrysen-9-yl)oxy)carbonyl)-2,2-dimethylcyclobutane-1-carboxylic acid]	> 8.52	6.70 to 7.30
CC(C)C1=C2[C@H]3CC[C@@H]4[C@@]5(C)CC[C@H](OC(=O)[C@H]6C[C@@H](C(=O)O)C6(C)C)C(C)(C)[C@@H]5CC[C@@]4(C)[C@]3(C)CC[C@@]2(NC(=O)C(C)(C)NCCN(C)C)CC1=O [Example 73, (1R,3S)-3-((((3aR,5aR,5bR,7aR,9S,11aR,11bR,13aS)-3a-(2-((2-(dimethylamino)ethyl)amino)-2-methylpropanamido)-1-isopropyl-5a,5b,8,8,11a-pentamethyl-2-oxo-3,3a,4,5,5a,5b,6,7,7a,8,9,10,11,11a,11b,12,13,13a-octadecahydro-2H-cyclopenta[a]chrysen-9-yl)oxy)carbonyl)-2,2-dimethylcyclobutane-1-carboxylic acid]	> 8.52	> 7.30
CC(C)C1=C2[C@H]3CC[C@@H]4[C@@]5(C)CC[C@H](OC(=O)[C@H]6C[C@@H](C(=O)O)C6(C)C)C(C)(C)[C@@H]5CC[C@@]4(C)[C@]3(C)CC[C@@]2(NC(=O)C(C)(C)NC(=O)[C@@H]2CCCN2C(=O)OC(C)(C)C)CC1=O [Example 8]	> 8.52	> 7.30
CC(C)C1=C2[C@H]3CC[C@@H]4[C@@]5(C)CC[C@H](OC(=O)[C@H]6C[C@@H](C(=O)O)C6(C)C)C(C)(C)[C@@H]5CC[C@@]4(C)[C@]3(C)CC[C@@]2(NC(=O)C(C)(C)NC(=O)C2CCNCC2)CC1=O [Example 35, (1R,3S)-3-((((3aR,5aR,5bR,7aR,9S,11aR,11bR,13aS)-1-isopropyl-5a,5b,8,8,11a-pentamethyl-3a-(2-methyl-2-(piperidine-4-carboxamido)propanamido)-2-oxo-3,3a,4,5,5a,5b,6,7,7a,8,9,10,11,11a,11b,12,13,13a-octadecahydro-2H-cyclopenta[a]chrysen-9-yl)oxy)carbonyl)-2,2-dimethylcyclobutane-1-carboxylic acid hydrochloride]	< 8.00	< 6.70
CC(C)C1=C2[C@H]3CC[C@@H]4[C@@]5(C)CC[C@H](OC(=O)[C@H]6C[C@@H](C(=O)O)C6(C)C)C(C)(C)[C@@H]5CC[C@@]4(C)[C@]3(C)CC[C@@]2(NC(=O)C(C)(C)NC(=O)c2ccoc2)CC1=O [Example 24, (1R,3S)-3-((((3aR,5aR,5bR,7aR,9S,11aR,11bR,13aS)-3a-(2-(furan-3-carboxamido)-2-methylpropanamido)-1-isopropyl-5a,5b, 8,8,11a-pentamethyl-2-oxo-3,3a,4,5,5a,5b,6,7,7a,8,9,10,11,11a,11b,12,13,13a-octadecahydro-2H-cyclopenta[a]chrysen-9-yl)oxy)carbonyl)-2,2-dimethylcyclobutane-1-carboxylic acid]	> 8.52	6.70 to 7.30
CC(C)C1=C2[C@H]3CC[C@@H]4[C@@]5(C)CC[C@H](OC(=O)[C@H]6C[C@@H](C(=O)O)C6(C)C)C(C)(C)[C@@H]5CC[C@@]4(C)[C@]3(C)CC[C@@]2(NC(=O)C(C)(C)N)CC1=O [Example 74, (1R,3S)-3-((((3aR,5aR,5bR,7aR,9S,11aR,11bR,13aS)-3a-(2-amino-2-methylpropanamido)-1-isopropyl-5a,5b,8,8,11a-pentamethyl-2-oxo-3,3a,4,5,5a,5b, 6,7,7a,8,9,10,11,11a,11b,12,13,13a-octadecahydro-2H-cyclopenta[a]chrysen-9-yl)oxy)carbonyl)-2,2-dimethylcyclobutane-1-carboxylic acid hydrochloride]	> 8.52	> 7.30
CC(C)C1=C2[C@H]3CC[C@@H]4[C@@]5(C)CC[C@H](OC(=O)[C@H]6C[C@@H](C(=O)O)C6(C)C)C(C)(C)[C@@H]5CC[C@@]4(C)[C@]3(C)CC[C@@]2(NC(=O)C(C)(C)NCc2ccccn2)CC1=O [Example 67, (1R,3S)-3-((((3aR,5aR,5bR,7aR,9S,11aR,11bR,13aS)-1-isopropyl-5a,5b,8,8,11a-pentamethyl-3a-(2-methyl-2-((pyridin-2-ylmethyl)amino)propan amido)-2-oxo-3,3a,4,5,5a,5b,6,7,7a,8,9,10,11,11a,11b,12,13,13a-octadecahydro-2H-cyclopenta[a]chrysen-9-yl)oxy)carbonyl)-2,2-dimethylcyclobutane-1-carboxylic acid]	> 8.52	> 7.30
CC(C)C1=C2[C@H]3CC[C@@H]4[C@@]5(C)CC[C@H](OC(=O)[C@H]6C[C@@H](C(=O)O)C6(C)C)C(C)(C)[C@@H]5CC[C@@]4(C)[C@]3(C)CC[C@@]2(NC(=O)C(C)(C)NC(=O)[C@@H](N)C(C)C)CC1=O [Example 36, (1R,3S)-3-((((3aR,5aR,5bR,7aR,9S,11aR,11bR,13aS)-3a-(2-((S)-2-amino-3-methylbutanamido)-2-methylpropanamido)-1-isopropyl-5a,5b,8,8,11a-pentamethyl-2-oxo-3,3a,4,5,5a,5b,6,7,7a,8,9,10,11,11a,11b,12,13,13a-octadecahydro-2H-cyclopenta[a]chrysen-9-yl)oxy)carbonyl)-2,2-dimethylcyclobutane-1-carboxylic acid hydrochloride]	> 8.52	6.70 to 7.30
CC(C)C1=C2[C@H]3CC[C@@H]4[C@@]5(C)CC[C@H](OC(=O)[C@H]6C[C@@H](C(=O)O)C6(C)C)C(C)(C)[C@@H]5CC[C@@]4(C)[C@]3(C)CC[C@@]2(NC(=O)C(C)(C)NCC2(c3ccc(Cl)cc3)CC2)CC1=O [Example 69, (1R,3S)-3-((((3aR,5aR,5bR,7aR,9S,11aR,11bR,13aS)-3a-(2-(((1-(4-chlorophenyl)cyclopropyl)methyl)amino)-2-methylpropanamido)-1-isopropyl-5a,5b,8,8,11a-pentamethyl-2-oxo-3,3a,4,5,5a,5b,6,7,7a,8,9,10,11,11a,11b,12,13,13a-octadecahydro-2H-cyclopenta[a]chrysen-9-yl)oxy)carbonyl)-2,2-dimethylcyclobutane-1-carboxylic acid]	< 8.00	6.70 to 7.30

— patent publication US11034718B2, “C-3 novel triterpenone with C-17 reverse amide derivatives as HIV inhibitors” (HETERO LABS LIMITED, priority 2015, dated 2021)
